# Test results taken from patent US20080090892A1, “AMORPHOUS ASENAPINE AND PROCESSES FOR PREPARING SAME” (N.V. Organon, priority 2006, published 2008).
# Counter-ions that a name gives are not always drawn.
# Assay: Relative humidity (RH) study, visual assessment in double-vial relative humidity chambers
# Assay type: physicochemical
# Settings: approximately 36 hours
# Method: Relative Humidity (RH): An RH study was conducted to determine appropriate handling conditions for amorphous asenapine maleate. Samples of Batch A1 were placed in double-vial relative humidity chambers at 3.4% RH, 8.2% RH and 22.5% RH and were visually assessed after approximately 36 hours.
smiles,measurement,setting,value
"CN1C[C@@H]2c3ccccc3Oc3ccc(Cl)cc3[C@H]2C1 (relative stereo) [Batch A1, trans-5-chloro-2-methyl-2,3,3a,12b-tetrahydro-1H-dibenz[2,3:6,7]oxepino[4,5-c]pyrrole maleate]",physical state after storage at controlled relative humidity (visual assessment),3.4% RH,remained solid
same,physical state after storage at controlled relative humidity (visual assessment),8.2% RH,remained solid
same,physical state after storage at controlled relative humidity (visual assessment),22.5% RH,deliquesced
